# Assay results: patent US11155557B2, “Pyrazolopyrimidine compounds and methods of use thereof” (Genentech, Inc., priority 2016, dated 2021)
# pIC50, pKi: −log10 of the molar value. Read-outs that look alike come from different tables or passages of the source.
# Experiments:
# [1] = biological target: isolated recombinant JAK1 kinase domain (Homo sapiens (Human), UniProt P23458); assay: JAK1 enzyme assay (Caliper LabChip, Ki); format: biochemical
# Protocol: The activity of the isolated recombinant JAK1 and JAK2 kinase domain was measured by monitoring phosphorylation of a peptide derived from JAK3 ([…] fluorescently labeled on the N-terminus with 5-carboxyfluorescein) using the Caliper LabChip R technology (Caliper Life Sciences, Hopkinton, Mass.).
# [2] = tested on: JAK1-dependent STAT6 phosphorylation in BEAS-2B human bronchial epithelial cells; assay: JAK1 pathway assay: IL-13 stimulated STAT6 phosphorylation in BEAS-2B cells; format: cell-based; conditions: Homo sapiens, BEAS-2B, BEAS-2B cells, IL-13 stimulation; read-out: IL-13 p-STAT6 BEAS-2B IC50
# In short: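 BEAS-2B bronchial epithelial cells plated one day before, run in complete growth medium. Phospho-STAT6 in lysates measured by MesoScale Discovery; EC50 reported.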
# [3] = biological target: isolated recombinant JAK2 kinase domain (Homo sapiens (Human), UniProt O60674); assay: JAK2 enzyme assay (Caliper LabChip, Ki)
# isolated recombinant JAK2 kinase domain, sequence (O60674 849-1124): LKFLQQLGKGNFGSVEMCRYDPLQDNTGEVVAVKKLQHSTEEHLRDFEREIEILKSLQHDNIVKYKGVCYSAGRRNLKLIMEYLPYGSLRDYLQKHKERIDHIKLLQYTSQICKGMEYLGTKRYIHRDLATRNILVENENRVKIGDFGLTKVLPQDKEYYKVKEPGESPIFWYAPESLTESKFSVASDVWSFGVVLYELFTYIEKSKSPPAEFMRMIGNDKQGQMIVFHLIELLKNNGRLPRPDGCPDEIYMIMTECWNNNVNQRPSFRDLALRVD
# isolated recombinant JAK1 kinase domain, sequence (P23458 875-1153): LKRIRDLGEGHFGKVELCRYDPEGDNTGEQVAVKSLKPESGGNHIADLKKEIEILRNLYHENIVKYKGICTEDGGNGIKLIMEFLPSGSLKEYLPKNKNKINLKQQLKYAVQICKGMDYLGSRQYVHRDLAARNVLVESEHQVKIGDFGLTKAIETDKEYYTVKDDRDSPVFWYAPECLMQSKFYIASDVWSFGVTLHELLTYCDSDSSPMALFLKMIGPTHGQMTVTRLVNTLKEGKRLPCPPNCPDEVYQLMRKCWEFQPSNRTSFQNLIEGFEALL
Compound,pKi [1],pIC50 [2],pKi ([3]; read-out: JAK2 Ki),pKi [3]
"C[C@@H]1CNc2cc(OC(F)F)c(-c3n[nH]cc3NC(=O)c3cnn4cccnc34)cc2O1 [Example 118, N-[3-[(2R)-6-(difluoromethoxy)-2-methyl-3,4-dihydro-2H-1,4-benzoxazin-7-yl]-1H-pyrazol-4-yl]pyrazolo[1,5-a]pyrimidine-3-carboxamide]",9.17,7.43,9.64,
"CNC(=O)Cn1cc(NC(=O)c2cnn3cccnc23)c(-c2cc3c(cc2OC(F)F)SCCO3)n1 [Example 119, N-[3-[6-(difluoromethoxy)-2,3-dihydro-1,4-benzoxathiin-7-yl]-1-[2-(methylamino)-2-oxo-ethyl]pyrazol-4-yl]pyrazolo[1,5-a]pyrimidine-3-carboxamide]",9.00,7.40,8.71,
"CN(C)C(=O)Cn1cc(NC(=O)c2cnn3cccnc23)c(-c2cc3c(cc2OC(F)F)SCCO3)n1 [Example 120, N-[3-[6-(difluoromethoxy)-2,3-dihydro-1,4-benzoxathiin-7-yl]-1-[2-(dimethylamino)-2-oxo-ethyl]pyrazol-4-yl]pyrazolo[1,5-a]pyrimidine-3-carboxamide]",9.20,7.34,8.60,
"CC[C@@H](O)Cn1cc(NC(=O)c2cnn3cccnc23)c(-c2cc3c(cc2OC(F)F)NCCO3)n1 [Example 121, N-[3-[6-(difluoromethoxy)-3,4-dihydro-2H-1,4-benzoxazin-7-yl]-1-[(2R)-2-hydroxybutyl]pyrazol-4-yl]pyrazolo[1,5-a]pyrimidine-3-carboxamide]",9.39,7.42,,9.35
"CC[C@H](O)Cn1cc(NC(=O)c2cnn3cccnc23)c(-c2cc3c(cc2OC(F)F)NCCO3)n1 [Example 122, N-[3-[6-(difluoromethoxy)-3,4-dihydro-2H-1,4-benzoxazin-7-yl]-1-[(2S)-2-hydroxybutyl]pyrazol-4-yl]pyrazolo[1,5-a]pyrimidine-3-carboxamide]",9.55,7.49,,9.60
"O=C(Nc1cn(Cc2ncco2)nc1-c1cc2c(cc1OC(F)F)NCCO2)c1cnn2cccnc12 [Example 123, N-[3-[6-(difluoromethoxy)-3,4-dihydro-2H-1,4-benzoxazin-7-yl]-1-(oxazol-2-ylmethyl)pyrazol-4-yl]pyrazolo[1,5-a]pyrimidine-3-carboxamide]",9.44,7.62,9.55,
"O=C(Nc1cn(Cc2ncco2)nc1-c1cc2c(cc1OC(F)F)NCCS2)c1cnn2cccnc12 [Example 124, N-[3-[6-(difluoromethoxy)-3,4-dihydro-2H-1,4-benzothiazin-7-yl]-1-(oxazol-2-ylmethyl)pyrazol-4-yl]pyrazolo[1,5-a]pyrimidine-3-carboxamide]",9.60,7.70,9.82,
"Cn1nnnc1Cn1cc(NC(=O)c2cnn3cccnc23)c(-c2cc3c(cc2OC(F)F)NCCS3)n1 [Example 127, N-[3-[6-(difluoromethoxy)-3,4-dihydro-2H-1,4-benzothiazin-7-yl]-1-[(1-methyltetrazol-5-yl)methyl]pyrazol-4-yl]pyrazolo[1,5-a]pyrimidine-3-carboxamide]",9.92,7.85,10.22,
"Cn1nnc(Cn2cc(NC(=O)c3cnn4cccnc34)c(-c3cc4c(cc3OC(F)F)NCCS4)n2)n1 [Example 128, N-[3-[6-(difluoromethoxy)-3,4-dihydro-2H-1,4-benzothiazin-7-yl]-1-[(2-methyltetrazol-5-yl)methyl]pyrazol-4-yl]pyrazolo[1,5-a]pyrimidine-3-carboxamide]",9.85,8.15,10.05,
"CN(C)C(=O)Cn1cc(NC(=O)c2cnn3cccnc23)c(-c2cc3sncc3cc2OC(F)F)n1 [Example 129, N-[3-[5-(difluoromethoxy)-1,2-benzothiazol-6-yl]-1-[2-(dimethylamino)-2-oxo-ethyl]pyrazol-4-yl]pyrazolo[1,5-a]pyrimidine-3-carboxamide]",9.70,7.96,9.33,
"CCN(C)C(=O)Cn1cc(NC(=O)c2cnn3cccnc23)c(-c2cc3c(cc2OC(F)F)NCCO3)n1 [Example 130, N-[3-[6-(difluoromethoxy)-3,4-dihydro-2H-1,4-benzoxazin-7-yl]-1-[2-[ethyl(methyl)amino]-2-oxo-ethyl]pyrazol-4-yl]pyrazolo[1,5-a]pyrimidine-3-carboxamide]",9.51,7.23,9.33,
"Cn1cc(Cn2cc(NC(=O)c3cnn4cccnc34)c(-c3cc4c(cc3OC(F)F)NCCS4)n2)nn1 [Example 131, N-[3-[6-(difluoromethoxy)-3,4-dihydro-2H-1,4-benzothiazin-7-yl]-1-[(1-methyltriazol-4-yl)methyl]pyrazol-4-yl]pyrazolo[1,5-a]pyrimidine-3-carboxamide]",9.92,7.52,10.10,
"O=C(Nc1cn(CC(=O)N2CCC(F)(F)C2)nc1-c1cc2c(cc1OC(F)F)NCCO2)c1cnn2cccnc12 [Example 132, N-[3-[6-(difluoromethoxy)-3,4-dihydro-2H-1,4-benzoxazin-7-yl]-1-[2-(3,3-difluoropyrrolidin-1-yl)-2-oxo-ethyl]pyrazol-4-yl]pyrazolo[1,5-a]pyrimidine-3-carboxamide]",9.44,7.51,9.40,
"Cn1nncc1Cn1cc(NC(=O)c2cnn3cccnc23)c(-c2cc3c(cc2OC(F)F)NCCO3)n1 [Example 133, N-[3-[6-(difluoromethoxy)-3,4-dihydro-2H-1,4-benzoxazin-7-yl]-1-[(3-methyltriazol-4-yl)methyl]pyrazol-4-yl]pyrazolo[1,5-a]pyrimidine-3-carboxamide]",9.59,7.77,9.68,
"O=C(Nc1cn(CC2(O)CCOCC2)nc1-c1cc2c(cc1OC(F)F)NCCO2)c1cnn2cccnc12 [Example 134, N-[3-[6-(difluoromethoxy)-3,4-dihydro-2H-1,4-benzoxazin-7-yl]-1-[(4-hydroxytetrahydropyran-4-yl)methyl]pyrazol-4-yl]pyrazolo[1,5-a]pyrimidine-3-carboxamide]",9.40,7.64,9.33,
"Cn1nnnc1Cn1cc(NC(=O)c2cnn3cccnc23)c(-c2cc3c(cc2OC(F)F)NCCO3)n1 [Example 135, N-[3-[6-(difluoromethoxy)-3,4-dihydro-2H-1,4-benzoxazin-7-yl]-1-[(1-methyltetrazol-5-yl)methyl]pyrazol-4-yl]pyrazolo[1,5-a]pyrimidine-3-carboxamide]",9.72,7.59,9.85,
"Cn1nnc(Cn2cc(NC(=O)c3cnn4cccnc34)c(-c3cc4c(cc3OC(F)F)NCCO4)n2)n1 [Example 136, N-[3-[6-(difluoromethoxy)-3,4-dihydro-2H-1,4-benzoxazin-7-yl]-1-[(2-methyltetrazol-5-yl)methyl]pyrazol-4-yl]pyrazolo[1,5-a]pyrimidine-3-carboxamide]",9.64,7.68,9.77,
"Cn1cc(NC(=O)c2cnn3cccnc23)c(-c2cc3c(cc2OC(F)F)NC(=O)CO3)n1 [Example 137, N-[3-[6-(difluoromethoxy)-3-oxo-4H-1,4-benzoxazin-7-yl]-1-methyl-pyrazol-4-yl]pyrazolo[1,5-a]pyrimidine-3-carboxamide]",10.05,8.10,10.10,
"O=C(Nc1cn(CC(=O)N2CC(F)(F)C2)nc1-c1cc2c(cc1OC(F)F)NCCO2)c1cnn2cccnc12 [Example 138, N-[1-[2-(3,3-difluoroazetidin-1-yl)-2-oxo-ethyl]-3-[6-(difluoromethoxy)-3,4-dihydro-2H-1,4-benzoxazin-7-yl]pyrazol-4-yl]pyrazolo[1,5-a]pyrimidine-3-carboxamide]",9.59,7.44,9.49,
"O=C(Nc1cn(C2COC2)nc1-c1cc2sncc2cc1OC(F)F)c1cnn2cccnc12 [Example 139, N-[3-[5-(difluoromethoxy)-1,2-benzothiazol-6-yl]-1-(oxetan-3-yl)pyrazol-4-yl]pyrazolo[1,5-a]pyrimidine-3-carboxamide]",9.48,8.00,9.68,
"N#CCn1cc(NC(=O)c2cnn3cccnc23)c(-c2cc3c(cc2OC(F)F)NCCS3)n1 [Example 140, N-[1-(cyanomethyl)-3-[6-(difluoromethoxy)-3,4-dihydro-2H-1,4-benzothiazin-7-yl]pyrazol-4-yl]pyrazolo[1,5-a]pyrimidine-3-carboxamide]",10.05,8.40,10.22,
"CN(C)C(=O)Cn1cc(NC(=O)c2cnn3cccnc23)c(-c2cc3cnsc3cc2OC(F)F)n1 [Example 143, N-[3-[6-(difluoromethoxy)-1,2-benzothiazol-5-yl]-1-[2-(dimethylamino)-2-oxo-ethyl]pyrazol-4-yl]pyrazolo[1,5-a]pyrimidine-3-carboxamide]",9.66,7.89,9.01,
"N#CCn1cc(NC(=O)c2cnn3cccnc23)c(-c2cc3c(cc2OC(F)F)NCCO3)n1 [Example 144, N-[1-(cyanomethyl)-3-[6-(difluoromethoxy)-3,4-dihydro-2H-1,4-benzoxazin-7-yl]pyrazol-4-yl]pyrazolo[1,5-a]pyrimidine-3-carboxamide]",9.85,8.15,9.96,
"Cn1cc(NC(=O)c2cnn3cccnc23)c(-c2cc3c(cc2OC(F)F)NC2(COC2)CO3)n1 [Example 147, N-(3-(6-(difluoromethoxy)-2,4-dihydrospiro[benzo[b][1,4]oxazine-3,3′-oxetan]-7-yl)-1-methyl-1H-pyrazol-4-yl)pyrazolo[1,5-a]pyrimidine-3-carboxamide]",9.47,7.85,9.49,
